# Reference: PubChem BioAssay (NCI)
#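 1) Cells in 96-well plates. 2) Compound, 48 h, 5 concentrations. 3) Linear interpolation between surrounding doses. 4) Unreached endpoint = highest concentration. GI50 is the concentration that inhibits growth by half. TGI marks complete inhibition of growth.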
# Legend:
# Experiment in all cases: NCI tumour cell line growth inhibition, 48 h
# [1] = test system: 786-0 renal
# [2] = test system: A498 renal
# [3] = test system: A549 NSCLC
# [4] = test system: ACHN renal
# [5] = test system: BT-549 breast
# [6] = test system: CAKI-1 renal
# [7] = test system: CCRF-CEM leukemia
# [8] = test system: COLO 205 colon
# [9] = test system: DU-145 prostate
# [10] = test system: EKVX NSCLC
# [11] = test system: HCC-2998 colon
# [12] = test system: HCT-116 colon
# [13] = test system: HCT-15 colon
# [14] = test system: HL-60(TB) leukemia
# [15] = test system: HOP-62 NSCLC
# [16] = test system: HOP-92 NSCLC
# [17] = test system: HS 578T breast
# [18] = test system: HT29 colon
# [19] = test system: IGROV1 ovarian
# [20] = test system: K-562 leukemia
# [21] = test system: LOX IMVI melanoma
# [22] = test system: M14 melanoma
# [23] = test system: MALME-3M melanoma
# [24] = test system: MCF7 breast
# [25] = test system: MDA-MB-231 breast
# [26] = test system: MDA-MB-435
# [27] = test system: MDA-N
# [28] = test system: MOLT-4 leukemia
# [29] = test system: NCI-H226 lung
# [30] = test system: NCI-H23 lung
# [31] = test system: NCI-H460 lung
# [32] = test system: NCI-H522 lung
# [33] = test system: NCI/ADR-RES ovarian
# [34] = test system: OVCAR-3 ovarian
# [35] = test system: OVCAR-4 ovarian
# [36] = test system: OVCAR-5 ovarian
# [37] = test system: OVCAR-8 ovarian
# [38] = test system: PC-3 prostate
# [39] = test system: RPMI-8226 leukemia
# [40] = test system: RXF 393 renal
# [41] = test system: SF-268 CNS
# [42] = test system: SF-295 CNS
# [43] = test system: SF-539 CNS
# [44] = test system: SK-MEL-2 melanoma
# [45] = test system: SK-MEL-28 melanoma
# [46] = test system: SK-MEL-5 melanoma
# [47] = test system: SN12C renal
# [48] = test system: SNB-19 CNS
# [49] = test system: SNB-75 CNS
# [50] = test system: SW-620 colon
# [51] = test system: T-47D breast
# [52] = test system: TK-10 renal
# [53] = test system: U251 CNS
# [54] = test system: UACC-257 melanoma
# [55] = test system: UACC-62 melanoma
# [56] = test system: SK-OV-3 ovarian
# [57] = test system: KM12 colon
# [58] = test system: SR leukemia
# [59] = test system: UO-31 renal
compound,measurement,setting,value
CCOC(=O)Cc1c(C)c2cc(C(=O)c3ccccc3)c(O)cc2oc1=O,TGI,[1],> 100 µM
same,TGI,[2],80.2 µM
same,TGI,[3],91.3 µM
same,TGI,[4],> 100 µM
same,TGI,[5],59.8 µM
same,TGI,[6],> 100 µM
same,TGI,[7],> 100 µM
same,TGI,[8],37.2 µM
same,TGI,[9],> 100 µM
same,TGI,[10],88.9 µM
same,TGI,[11],> 100 µM
same,TGI,[12],> 100 µM
same,TGI,[13],> 100 µM
same,TGI,[14],53.8 µM
same,TGI,[15],> 100 µM
same,TGI,[16],58.8 µM
same,TGI,[17],97.1 µM
same,TGI,[18],> 100 µM
same,TGI,[19],> 100 µM
same,TGI,[20],71.8 µM
same,TGI,[21],> 100 µM
same,TGI,[22],> 100 µM
same,TGI,[23],62.1 µM
same,TGI,[24],63.9 µM
same,TGI,[25],72 µM
same,TGI,[26],> 100 µM
same,TGI,[27],> 100 µM
same,TGI,[28],> 100 µM
same,TGI,[29],> 100 µM
same,TGI,[30],46.6 µM
same,TGI,[31],> 100 µM
same,TGI,[32],68.7 µM
same,TGI,[33],73.3 µM
same,TGI,[34],53.8 µM
same,TGI,[35],> 100 µM
same,TGI,[36],> 100 µM
same,TGI,[37],> 100 µM
same,TGI,[38],81.2 µM
same,TGI,[39],> 100 µM
same,TGI,[40],> 100 µM
same,TGI,[41],84.9 µM
same,TGI,[42],> 100 µM
same,TGI,[43],58.3 µM
same,TGI,[44],40.2 µM
same,TGI,[45],> 100 µM
same,TGI,[46],40 µM
same,TGI,[47],> 100 µM
same,TGI,[48],> 100 µM
same,TGI,[49],74.7 µM
same,TGI,[50],> 100 µM
same,TGI,[51],88.3 µM
same,TGI,[52],> 100 µM
same,TGI,[53],74.2 µM
same,TGI,[54],80.1 µM
same,TGI,[55],> 100 µM
CC1(C)OC2C(COC(c3ccccc3)(c3ccccc3)c3ccccc3)OC(c3c[nH]c4c(N)ncnc34)C2O1 (configuration not stated),TGI,[1],4.37 µM
same,TGI,[3],13.9 µM
same,TGI,[4],13.3 µM
same,TGI,[8],23.9 µM
same,TGI,[9],18.9 µM
same,TGI,[10],21.8 µM
same,TGI,[12],15.9 µM
same,TGI,[13],15.2 µM
same,TGI,[15],16.1 µM
same,TGI,[16],18.5 µM
same,TGI,[17],28.4 µM
same,TGI,[18],7.15 µM
same,TGI,[19],17 µM
same,TGI,[21],3.26 µM
same,TGI,[22],9.44 µM
same,TGI,[23],16.8 µM
same,TGI,[25],27.4 µM
same,TGI,[27],11 µM
same,TGI,[31],10.5 µM
same,TGI,[32],17.8 µM
same,TGI,[33],29 µM
same,TGI,[34],9.26 µM
same,TGI,[35],23.3 µM
same,TGI,[37],21.7 µM
same,TGI,[38],10.5 µM
same,TGI,[41],21.4 µM
same,TGI,[42],7.29 µM
same,TGI,[44],29.3 µM
same,TGI,[46],3.05 µM
same,TGI,[56],17.5 µM
same,TGI,[47],15.4 µM
same,TGI,[49],19.6 µM
same,TGI,[50],14.1 µM
same,TGI,[51],17.2 µM
same,TGI,[54],17.5 µM
same,TGI,[55],4.21 µM
COc1cc2c(cc1OC(C)C)[C@H](c1ccc(Cl)cc1)N(c1ccc(N(C)CC3CCC(N4CCN(C)C(=O)C4)CC3)cc1)C(=O)C2 (some centres not stated),GI50,[1],2.85 µM
same,TGI,[1],8.73 µM
same,GI50,[2],1.38 µM
same,TGI,[2],6.49 µM
same,GI50,[3],0.537 µM
same,TGI,[3],5.24 µM
same,GI50,[4],0.32 µM
same,TGI,[4],3.62 µM
same,GI50,[5],2.18 µM
same,TGI,[5],7.7 µM
same,GI50,[6],0.345 µM
same,TGI,[6],4.99 µM
same,GI50,[7],2.61 µM
same,TGI,[7],7.48 µM
same,GI50,[8],2.59 µM
same,TGI,[8],7.36 µM
same,GI50,[9],5.3 µM
same,TGI,[9],11.2 µM
same,GI50,[10],1.93 µM
same,TGI,[10],7.81 µM
same,GI50,[11],2.59 µM
same,TGI,[11],7.07 µM
same,GI50,[12],0.447 µM
same,TGI,[12],2.48 µM
same,GI50,[13],1.95 µM
same,TGI,[13],5.79 µM
same,GI50,[14],2.19 µM
same,TGI,[14],5.87 µM
same,GI50,[15],4.19 µM
same,TGI,[15],9.64 µM
same,GI50,[16],1.98 µM
same,TGI,[16],4.85 µM
same,GI50,[17],3.48 µM
same,TGI,[17],13.1 µM
same,GI50,[18],2.7 µM
same,TGI,[18],7.79 µM
same,GI50,[19],1.16 µM
same,TGI,[19],4.13 µM
same,GI50,[20],3.56 µM
same,TGI,[20],16.9 µM
same,GI50,[57],3.13 µM
same,TGI,[57],9.11 µM
same,GI50,[21],0.516 µM
same,TGI,[21],2.19 µM
same,GI50,[22],2.72 µM
same,TGI,[22],7.86 µM
same,GI50,[23],0.09 µM
same,TGI,[23],2.74 µM
same,GI50,[24],0.271 µM
same,TGI,[24],3.61 µM
same,GI50,[25],2.04 µM
same,TGI,[25],4.02 µM
same,GI50,[26],2.47 µM
same,TGI,[26],6.93 µM
same,GI50,[28],0.363 µM
same,TGI,[28],5.77 µM
same,GI50,[29],0.311 µM
same,TGI,[29],1.7 µM
same,GI50,[30],3.34 µM
same,TGI,[30],13.2 µM
same,GI50,[31],0.531 µM
same,TGI,[31],4.43 µM
same,GI50,[32],3.9 µM
same,TGI,[32],10.4 µM
same,GI50,[33],3.18 µM
same,TGI,[33],14.7 µM
same,GI50,[34],2.6 µM
same,TGI,[34],7.07 µM
same,GI50,[35],2.99 µM
same,TGI,[35],9.85 µM
same,GI50,[36],2.66 µM
same,TGI,[36],9.58 µM
same,GI50,[37],5.86 µM
same,TGI,[37],20.3 µM
same,GI50,[38],1.98 µM
same,TGI,[38],5.51 µM
same,GI50,[39],2.13 µM
same,TGI,[39],4.76 µM
same,GI50,[40],2.66 µM
same,TGI,[40],7.92 µM
same,GI50,[41],3.01 µM
same,TGI,[41],8.72 µM
same,GI50,[42],2.16 µM
same,TGI,[42],5.46 µM
same,GI50,[43],1.64 µM
same,TGI,[43],3.21 µM
same,GI50,[44],5.87 µM
same,TGI,[44],12.1 µM
same,GI50,[45],2 µM
same,TGI,[45],4.29 µM
same,GI50,[46],1.44 µM
same,TGI,[46],2.84 µM
same,GI50,[56],4.05 µM
same,TGI,[56],8.86 µM
same,GI50,[47],2.95 µM
same,TGI,[47],9.15 µM
same,GI50,[48],4.07 µM
same,TGI,[48],14.7 µM
same,GI50,[49],2.95 µM
same,TGI,[49],8.68 µM
same,GI50,[58],0.123 µM
same,TGI,[58],1.97 µM
same,GI50,[50],4.6 µM
same,TGI,[50],10 µM
same,GI50,[51],2.62 µM
same,TGI,[51],11.8 µM
same,GI50,[52],3.63 µM
same,TGI,[52],9.34 µM
same,GI50,[53],3.34 µM
same,TGI,[53],8.44 µM
same,GI50,[54],1.4 µM
same,TGI,[54],6.92 µM
same,GI50,[55],0.521 µM
same,TGI,[55],3.52 µM
same,GI50,[59],0.305 µM
same,TGI,[59],2.22 µM
